In patent US20230404998A1, “Combination Therapies for Treating Cancer” (ASCENTAGE PHARMA (SUZHOU) CO., LTD., priority 2020, published 2023):
Entries after “also recorded” stand apart in the source; their conditions may differ. Marks after values point to notes of the source that are not given here.

Key:
RANCA = test: Antiproliferative activity in RCC line RANCA; type: cell-based; settings: Mus musculus; murine RCC line RANCA
[1] = target: T1, BCR-ABL single or compound mutations (BaF3 cells) (Homo sapiens, UniProt P00519, cells depend on it, form not given); test: Cell based anti-proliferation studies, BaF3 cells with BCR-ABL single or compound mutations (summary); set-up: species or system murine
T1 construct: fused on or other part: P11274 (Breakpoint cluster region protein)
Method: (§1) The anti-proliferative effect was determined by a water-soluble tetrazolium (WST)-based assay using Cell Counting Kit-8 (CCK-8, #D3100L4057, Shanghai life ilab bio technology co., LTD, China). Cells were seeded in 96-well plates and treated with different concentrations of test articles. […] Each treatment was tested in triplicates. The plate was then cultured at 37° C. with 5% CO2 for 72 hours. At the end of treatments, 20 μl/well of CCK-8 reagent was directly added to each wells. The plate was then incubated at 37° C. with 5% CO2 for 2-4 h. The OD value was detected at 450 nm on a microplate reader (SpectraMax I3X, Molecular Devices, US). IC50 values were calculated with Graphpad Prism 7.0 software using nonlinear regression (curve fitting) type data analysis. For combination effect assay, the cells viability was normalized using the mean OD value of triplicated wells for the single agent control.
A series of cell lines expressing BCR-ABL single or compound mutations were constructed based on BaF3 murine pro-B cell line.

VEGFR1 = VEGFR1 (Homo sapiens, UniProt P17948); test: Cell-free kinase assay VEGFR1; type: biochemical
VEGFR2 = VEGFR2 (Homo sapiens, UniProt P35968); test: Cell-free kinase assay VEGFR2; type: biochemical
[2] = target: BaF3(Bcr-Abl) T315I-G250E (Homo sapiens, UniProt P00519, G250E/T315I, cells depend on it); settings: read-out: Anti-proliferation (IC50)
Method: as §1

[3] = target: BaF3(Bcr-Abl) T315I-E459K (Homo sapiens, UniProt P00519, T315I/E459K, cells depend on it); settings: read-out: Anti-proliferation (IC50)
Method: as §1

[4] = target: BaF3(Bcr-Abl) T315I-E453K (Homo sapiens, UniProt P00519, T315I/E453K, cells depend on it); settings: read-out: Anti-proliferation (IC50)
Method: as §1

BaF3(Bcr-Abl) F359V = BaF3(Bcr-Abl) F359V (Homo sapiens, UniProt P00519, F359V, cells depend on it); settings: read-out: Anti-proliferation (IC50)
Method: as §1

[5] = target: BaF3(Bcr-Abl) T315I-Y253H (Homo sapiens, UniProt P00519, Y253H/T315I, cells depend on it); settings: read-out: Anti-proliferation (IC50)
Method: as §1

[6] = target: BaF3(Bcr-Abl) F317L-F359V (Homo sapiens, UniProt P00519, F317L/F359V, cells depend on it); settings: read-out: Anti-proliferation (IC50)
Method: as §1

BaF3(Bcr-Abl) T35I-F311I = BaF3(Bcr-Abl) T35I-F311I (Homo sapiens, UniProt P00519, F311I/T315I, cells depend on it); settings: read-out: Anti-proliferation (IC50)
Method: as §1

[7] = system: VEGFR, SRC, Akt and extracellular signal-regulated kinases in vascular endothelial cells; test: Phosphorylation of VEGFR, SRC and downstream proteins in vascular endothelial cells; type: cell-based
FGFR = test: Phosphorylation of FGFR and downstream proteins in cancer cells; type: cell-based
[8] = system: human umbilical vein endothelial cells; test: Antiproliferative effects on human umbilical vein endothelial cells; type: cell-based
[9] = system: p-SRC and PD-L1 expression in H460 and A549 cells; test: Western blot / RT-PCR of p-SRC and PD-L1 expression in NSCLC cell lines; type: cell-based, human
Method: Cells were treated with the indicated concentrations and washed twice with cold PBS. Whole cell extracts were collected in RIPA lysis buffer (Santa Cruz Biotechnology, Germany), and protein concentration of the lysates was measured using a BCA Protein Assay Kit (ThermoFisher, USA). The protein samples were electrophoresed through a 10% SDS-PAGE gel and transferred to a polyvinylidene difluoride (PVDF) membrane (Roche, USA). After blocking, membranes were probed with primary antibodies (1:1000) against SRC, p-SRC, PD-L1, GAPDH, 0-tubulin (Cell Signaling Technology, USA) followed by washing and incubation with a secondary antibody (1:5000) conjugated to horseradish peroxidase (Santa Cruz Biotechnology, USA). Protein bands were visualized by applying a chemiluminescent reagent (Pierce ECL kit, Thermo Fisher Scientific, USA) and protein level were quantified by Image Lab (Bio-Rad Laboratory, USA).
Total cellular RNA was extracted by Trizol (Invitrogen, USA) for mRNA analysis. RNA was reverse-transcribed to cDNA profile through using the Transcriptor First Strand cDNA Synthesis kit (Roche Applied Science, USA) and then Real time PCR reactions were performed using the FastStart SYBR Green Master (ROX) reagent (Roche Applied Science, USA) according to the manufacturer's instructions. […]

[10] = system: Y253H/T315I orthotopic tumor model; test: In vivo efficacy, Y253H/T315I orthotopic tumor model; set-up: species or system mouse; settings: ABL001 60 mg/kg, Ponatinib 20 mg/kg, HQP1351 20 mg/kg
Method: (§2) In vivo efficacy was evaluated using the syngeneic mouse model derived from BaF3 cells with T315I and/or compound mutations. Tumor models were established by intravenously injecting tumor cells (1×10^5/mouse) into the caudal vein under sterile conditions. Mice were randomized into control and treatment groups with 8-10 mice per group and start the treatment from the second day post inoculation. The animal body weights were measured twice a week. The antitumor activity curves of test articles were plotted with the treatment time (day) on the X-axis, and corresponding survival rate on the Y-axis. A Log-rank (Mental-cox) test was employed to analyze the statistical significance of any difference between the treatment group and the control group. Prism version 7 (GraphPad Software Inc., San Diego, CA) was used for all statistical analysis and for graphic presentation.

[11] = system: E255V/T315I orthotopic tumor model; test: In vivo efficacy, E255V/T315I orthotopic tumor model; set-up: species or system mouse; settings: ABL001 60 mg/kg, Ponatinib 20 mg/kg, HQP1351 20 mg/kg
Method: as §2

VEGFR3 = VEGFR3 (Homo sapiens, UniProt P35916); test: Cell-free kinase assay VEGFR3; type: biochemical
Ph+ ALL SUP-B15 cells = test: Cell viability assay (Cell-Titer Glo) in leukemia cell lines; type: cell-based; settings: 72 hours
Method: After treatment, cell viability was measured by Promega© Cell-Titer Glo®3D Cell Viability Assay luminescence assay kit according to instructions from the manufacturer (Promega, Madison, WI, USA, Cat #G7571). Luminescence signal was detected using a BioTek Synergy H1 Hybrid Multi-Mode (Microplate) Reader (BioTek, Shanghai). Cellular proliferative (i.e. viability) curves were plotted and anti-proliferation IC50 values were calculated using Graphpad Prism version 6.0 software (GraphPad Software, San Diego, CA USA).

RANCA tumor tissues = test: Tumor-infiltrating lymphocyte assays in RANCA tumor tissues; type: in vivo, mouse
[12] = system: T315I orthotopic tumor model; test: In vivo efficacy, T315I orthotopic tumor model; set-up: species or system mouse; settings: ABL001 60 mg/kg, Ponatinib 20 mg/kg, HQP1351 20 mg/kg
Method: as §2

[13] = system: F317L/T315I orthotopic tumor model; test: In vivo efficacy, F317L/T315I orthotopic tumor model; set-up: species or system mouse; settings: ABL001 60 mg/kg, Ponatinib 20 mg/kg, HQP1351 20 mg/kg
Method: as §2

Cc1ccc(C(=O)Nc2ccc(CN3CCN(C)CC3)c(C(F)(F)F)c2)cc1C#Cc1cnc2[nH]ncc2c1 [HQP1351, 3-(2-(1H-pyrazolo[3,4-b]pyridin-5-yl)ethynyl)-4-methyl-N-(4-((4-methylpiperazin-1-yl)methyl)-3-(trifluoromethyl)phenyl)-benzamide]
IC50 (RANCA): 141 nM | Anti-proliferative effectiveness against compound mutations compared with other TKIs ([1]; BCR-ABL compound mutations): more effective than ponatinib, asciminib and other TKIs | GI50 ([1]; read-out: IC50 values toward BCR-ABL single or compound mutations, range over BaF3 BCR-ABL mutant cell lines): 6 to 300 nM | IC50 (VEGFR1): 4.2 nM | IC50 (VEGFR2): 6.1 nM | GI50 [2]: 33 ± 2 nM | GI50 [3]: 109 ± 4 nM | GI50 [4]: 61 ± 27 nM | GI50 (BaF3(Bcr-Abl) F359V): 50 ± 16 nM | GI50 [5]: 114 ± 1 nM | GI50 [6]: 25 ± 13 nM | GI50 (BaF3(Bcr-Abl) T35I-F311I): 78 ± 46 nM | Phosphorylation of VEGFR, SRC, and downstream proteins Akt and extracellular signal-regulated kinases [7]: inhibiting phosphorylation of VEGFR, SRC, and downstream proteins | Phosphorylation of FGFR and downstream proteins (FGFR): inhibiting phosphorylation of FGFR and downstream proteins | Antiproliferative effects compared to lenvatinib [8]: more potent antiproliferative effects | PD-L1 and p-SRC levels at different time points ([9]; 2 μM HQP-1351): time-dependent suppression of PD-L1 and p-SRC levels | PD-L1 expression and p-SRC phosphorylation, differing concentrations ([9]; NSCLC cell lines, 24 h, Western blot): decreased PD-L1 expression as well as p-SRC phosphorylation in a concentration-dependent manner | Median survival [10]: 18.5 | Survival prolongation (%) [10]: 8.82% | Survive/Total @ 24 [10]: 0/8 | Median survival [11]: 27.0**** | Survival prolongation (%) [11]: 28.57% | Survive/Total @ D26 [11]: 0/10 | IC50 (VEGFR3): 4.1 nM | Proliferation of Ph+ leukemia cells including SUP-B15 (Ph+ ALL SUP-B15 cells): selectively inhibited the proliferation of Ph+ cells; also recorded: potently inhibits the proliferation | Immune cell numbers in RANCA tumor tissues (RANCA tumor tissues): increased numbers of cytotoxic T cells (CTL, CD8^+) and natural-killer cells | Median survival [12]: 27.0**** | Survival prolongation (%) [12]: 28.57% | Survive/Total @ D43 [12]: 0/10 | Median survival [13]: 25.0****^$ | Survival prolongation (%) [13]: 42.86% | Survive/Total @ 24 [13]: 0/8
